Results: the supplement of paper PMC8960247
Counter-ions that a name gives are not always drawn. ± gives the standard error.

How the values were obtained:
[1] = tested on: 621-103 (TSC2-rescued); assay: relative viability vs DMSO; higher = less cytotoxic; details: serum: 10% FBS, 72 h
[2] = tested on: 621-102 (TSC2-deficient); assay: as above; details: serum: 10% FBS, 72 h
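Further: immortalized renal angiomyolipoma cells stably carrying empty vector or TSC2, dosed in 384-well plates in DMEM, viability normalized to vehicle-treated wells within each plate.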

COc1cc2ncnc(Nc3ccc(F)c(Cl)c3)c2cc1OCCCN1CCOCC1 [Gefitinib]
relative viability ([1]; 0.0001 µM): 101 ± 1.8% | relative viability ([1]; 0.001 µM): 101 ± 1.2% | relative viability ([1]; 0.01 µM): 102 ± 1.6% | relative viability ([1]; 0.1 µM): 99.7 ± 1.1% | relative viability ([1]; 1 µM): 99.2 ± 1.2% | relative viability ([1]; 10 µM): 76.4 ± 3.7% | relative viability ([2]; 0.0001 µM): 111 ± 1.2% | relative viability ([2]; 0.001 µM): 105.6 ± 0.46% | relative viability ([2]; 0.01 µM): 106.5 ± 0.3% | relative viability ([2]; 0.1 µM): 96.3 ± 4.1% | relative viability ([2]; 1 µM): 100 ± 1.1% | relative viability ([2]; 10 µM): 84.7 ± 1.8%

COc1cc2nccc(Oc3ccc(NC(=O)Nc4cc(C)on4)c(Cl)c3)c2cc1OC [AV-951(Tivozanib)]
relative viability ([1]; 0.0001 µM): 101.2 ± 0.14% | relative viability ([1]; 0.001 µM): 104 ± 1.3% | relative viability ([1]; 0.01 µM): 102.2 ± 0.42% | relative viability ([1]; 0.1 µM): 99.26 ± 0.52% | relative viability ([1]; 1 µM): 102 ± 2.4% | relative viability ([1]; 10 µM): 48.2 ± 1.3% | relative viability ([2]; 0.0001 µM): 102 ± 2% | relative viability ([2]; 0.001 µM): 96.6 ± 3.2% | relative viability ([2]; 0.01 µM): 110 ± 5.9% | relative viability ([2]; 0.1 µM): 111 ± 2% | relative viability ([2]; 1 µM): 107 ± 2.7% | relative viability ([2]; 10 µM): 77.33 ± 0.38%

C[C@]12CC[C@H](O)CC1=CC[C@@H]1[C@@H]2CC[C@]2(C)C(=O)CC[C@@H]12 [DHEA]
relative viability ([1]; 0.0001 µM): 73.1 ± 4.3% | relative viability ([1]; 0.001 µM): 81.7 ± 1.7% | relative viability ([1]; 0.01 µM): 80.2 ± 3.5% | relative viability ([1]; 0.1 µM): 86.4 ± 7% | relative viability ([1]; 1 µM): 79 ± 6% | relative viability ([1]; 10 µM): 71.2 ± 8.4% | relative viability ([2]; 0.0001 µM): 105.05 ± 0.093% | relative viability ([2]; 0.001 µM): 105 ± 1.6% | relative viability ([2]; 0.01 µM): 99.6 ± 3.3% | relative viability ([2]; 0.1 µM): 104 ± 2.9% | relative viability ([2]; 1 µM): 97.2 ± 3.6% | relative viability ([2]; 10 µM): 107 ± 1.8%

Nc1ccn([C@H]2CC[C@@H](CO)O2)c(=O)n1 [Zalcitabine]
relative viability ([1]; 0.0001 µM): 90.4 ± 5.7% | relative viability ([1]; 0.001 µM): 95.48 ± 0.79% | relative viability ([1]; 0.01 µM): 105 ± 1.1% | relative viability ([1]; 0.1 µM): 105 ± 4.4% | relative viability ([1]; 1 µM): 100.4 ± 0.83% | relative viability ([1]; 10 µM): 102 ± 1.8% | relative viability ([2]; 0.0001 µM): 92.2 ± 0.98% | relative viability ([2]; 0.001 µM): 99.9 ± 1.3% | relative viability ([2]; 0.01 µM): 94.1 ± 2.3% | relative viability ([2]; 0.1 µM): 103.3 ± 0.81% | relative viability ([2]; 1 µM): 102 ± 3.1% | relative viability ([2]; 10 µM): 93.26 ± 0.69%

CNC(=O)c1ccccc1Sc1ccc2c(/C=C/c3ccccn3)n[nH]c2c1 [Axitinib]
relative viability ([1]; 0.0001 µM): 86.7 ± 7.2% | relative viability ([1]; 0.001 µM): 97.7 ± 3.4% | relative viability ([1]; 0.01 µM): 100 ± 0.42% | relative viability ([1]; 0.1 µM): 102 ± 1.1% | relative viability ([1]; 1 µM): 98.7 ± 1.9% | relative viability ([1]; 10 µM): 40.7 ± 1.5% | relative viability ([2]; 0.0001 µM): 102 ± 3.9% | relative viability ([2]; 0.001 µM): 104 ± 1.7% | relative viability ([2]; 0.01 µM): 113 ± 0.88% | relative viability ([2]; 0.1 µM): 109 ± 3.8% | relative viability ([2]; 1 µM): 103.5 ± 0.7% | relative viability ([2]; 10 µM): 55 ± 0.8%

CO[C@H]1C[C@@H]2CC[C@@H](C)[C@@](O)(O2)C(=O)C(=O)N2CCCC[C@H]2C(=O)O[C@H]([C@H](C)C[C@@H]2CC[C@@H](O)[C@H](OC)C2)CC(=O)[C@H](C)/C=C(\C)[C@@H](O)[C@@H](OC)C(=O)[C@H](C)C[C@H](C)/C=C/C=C/C=C/1C [Rapamycin (Sirolimus)]
relative viability ([1]; 0.0001 µM): 80.829 ± 0.071% | relative viability ([1]; 0.001 µM): 63.1 ± 2.6% | relative viability ([1]; 0.01 µM): 70 ± 2.1% | relative viability ([1]; 0.1 µM): 78.1 ± 1.8% | relative viability ([1]; 1 µM): 71.36 ± 0.67% | relative viability ([1]; 10 µM): 68.1 ± 2.8% | relative viability ([2]; 0.0001 µM): 37 ± 2.8% | relative viability ([2]; 0.001 µM): 43.2 ± 5% | relative viability ([2]; 0.01 µM): 38.8 ± 3.9% | relative viability ([2]; 0.1 µM): 41.6 ± 2.9% | relative viability ([2]; 1 µM): 44.6 ± 5.5% | relative viability ([2]; 10 µM): 44.8 ± 2%

CCN(CC)CCNC(=O)c1c(C)[nH]c(/C=C2\C(=O)Nc3ccc(F)cc32)c1C [Sunitinib Malate]
relative viability ([1]; 0.0001 µM): 102 ± 2.3% | relative viability ([1]; 0.001 µM): 106 ± 1.5% | relative viability ([1]; 0.01 µM): 105.8 ± 0.65% | relative viability ([1]; 0.1 µM): 105 ± 1.8% | relative viability ([1]; 1 µM): 103.2 ± 0.44% | relative viability ([1]; 10 µM): 30.5 ± 0.91% | relative viability ([2]; 0.0001 µM): 98.8 ± 6.5% | relative viability ([2]; 0.001 µM): 110 ± 7% | relative viability ([2]; 0.01 µM): 107 ± 5.9% | relative viability ([2]; 0.1 µM): 110 ± 3.6% | relative viability ([2]; 1 µM): 125 ± 4.1% | relative viability ([2]; 10 µM): 71 ± 1.9%

O=C(NOCC1CC1)c1ccc(F)c(F)c1Nc1ccc(I)cc1Cl
relative viability ([1]; 0.0001 µM): 97.56 ± 0.82% | relative viability ([1]; 0.001 µM): 92.3 ± 5.6% | relative viability ([1]; 0.01 µM): 98.9 ± 2.7% | relative viability ([1]; 0.1 µM): 99.9 ± 2.7% | relative viability ([1]; 1 µM): 96.7 ± 3.3% | relative viability ([1]; 10 µM): 74.9 ± 1.4% | relative viability ([2]; 0.0001 µM): 101 ± 2.5% | relative viability ([2]; 0.001 µM): 98 ± 1.2% | relative viability ([2]; 0.01 µM): 104 ± 1.8% | relative viability ([2]; 0.1 µM): 97.3 ± 1.5% | relative viability ([2]; 1 µM): 98.4 ± 1.5% | relative viability ([2]; 10 µM): 81.4 ± 0.87%

Cc1cccc(-c2nn3c(c2-c2ccnc4ccc(C(N)=O)cc24)CCC3)n1
relative viability ([1]; 0.0001 µM): 102.4 ± 0.59% | relative viability ([1]; 0.001 µM): 93.4 ± 3.5% | relative viability ([1]; 0.01 µM): 97.8 ± 2.9% | relative viability ([1]; 0.1 µM): 97.7 ± 2.5% | relative viability ([1]; 1 µM): 99.2 ± 0.91% | relative viability ([1]; 10 µM): 106 ± 1.6% | relative viability ([2]; 0.0001 µM): 97.6 ± 7.5% | relative viability ([2]; 0.001 µM): 87.2 ± 2% | relative viability ([2]; 0.01 µM): 95.57 ± 0.43% | relative viability ([2]; 0.1 µM): 109 ± 5.5% | relative viability ([2]; 1 µM): 96 ± 2.2% | relative viability ([2]; 10 µM): 93.9 ± 4.6%

Nc1ccccc1NC(=O)c1ccc(CNC(=O)OCc2cccnc2)cc1 [MS-275]
relative viability ([1]; 0.0001 µM): 100.1 ± 0.8% | relative viability ([1]; 0.001 µM): 99.4 ± 1.4% | relative viability ([1]; 0.01 µM): 98.42 ± 0.37% | relative viability ([1]; 0.1 µM): 95.9 ± 1.2% | relative viability ([1]; 1 µM): 81.09 ± 0.74% | relative viability ([1]; 10 µM): 39.1 ± 0.61% | relative viability ([2]; 0.0001 µM): 103 ± 3.7% | relative viability ([2]; 0.001 µM): 109.1 ± 0.37% | relative viability ([2]; 0.01 µM): 96.5 ± 1% | relative viability ([2]; 0.1 µM): 82.7 ± 3.8% | relative viability ([2]; 1 µM): 83 ± 2.6% | relative viability ([2]; 10 µM): 64.11 ± 0.47%

NC(=O)c1ccc(N(C(N)=O)c2c(F)cccc2F)nc1-c1ccc(F)cc1F [VX-702]
relative viability ([1]; 0.0001 µM): 101.5 ± 0.42% | relative viability ([1]; 0.001 µM): 99.8 ± 1.8% | relative viability ([1]; 0.01 µM): 99.92 ± 0.12% | relative viability ([1]; 0.1 µM): 99.4 ± 1.5% | relative viability ([1]; 1 µM): 96.56 ± 0.13% | relative viability ([1]; 10 µM): 99.1 ± 1.8% | relative viability ([2]; 0.0001 µM): 107 ± 1.9% | relative viability ([2]; 0.001 µM): 109 ± 1.9% | relative viability ([2]; 0.01 µM): 96.7 ± 1.6% | relative viability ([2]; 0.1 µM): 98.6 ± 1.4% | relative viability ([2]; 1 µM): 111.1 ± 0.41% | relative viability ([2]; 10 µM): 104 ± 4%

C[C@@H](Oc1cc(-c2cnn(C3CCNCC3)c2)cnc1N)c1c(Cl)ccc(F)c1Cl
relative viability ([1]; 0.0001 µM): 99.34 ± 0.12% | relative viability ([1]; 0.001 µM): 102.8 ± 0.57% | relative viability ([1]; 0.01 µM): 102 ± 1.5% | relative viability ([1]; 0.1 µM): 103 ± 1.6% | relative viability ([1]; 1 µM): 101.6 ± 0.21% | relative viability ([1]; 10 µM): 5.36 ± 0.69% | relative viability ([2]; 0.0001 µM): 105.6 ± 0.81% | relative viability ([2]; 0.001 µM): 97.3 ± 6.2% | relative viability ([2]; 0.01 µM): 104 ± 2.6% | relative viability ([2]; 0.1 µM): 106 ± 1.4% | relative viability ([2]; 1 µM): 98 ± 2.9% | relative viability ([2]; 10 µM): 10.7 ± 1.4%

C#CCN(C)[C@H](C)Cc1ccccc1 [Selegiline HCl]
relative viability ([1]; 0.0001 µM): 95.9 ± 3.1% | relative viability ([1]; 0.001 µM): 92.55 ± 0.61% | relative viability ([1]; 0.01 µM): 100 ± 1.2% | relative viability ([1]; 0.1 µM): 109 ± 2.5% | relative viability ([1]; 1 µM): 102 ± 3.7% | relative viability ([1]; 10 µM): 79.5 ± 0.86% | relative viability ([2]; 0.0001 µM): 81.4 ± 7.3% | relative viability ([2]; 0.001 µM): 80.4 ± 9.2% | relative viability ([2]; 0.01 µM): 91.8 ± 7.5% | relative viability ([2]; 0.1 µM): 102 ± 1.1% | relative viability ([2]; 1 µM): 95.7 ± 3% | relative viability ([2]; 10 µM): 88.1 ± 1.8%

O=C1c2c(O)ccc(O)c2C(=O)c2c(NCCNCCO)ccc(NCCNCCO)c21 [Mitoxantrone]
relative viability ([1]; 0.0001 µM): 94.9 ± 2.3% | relative viability ([1]; 0.001 µM): 87.32 ± 0.1% | relative viability ([1]; 0.01 µM): 90.41 ± 0.1% | relative viability ([1]; 0.1 µM): 36.95 ± 0.31% | relative viability ([1]; 1 µM): 8.71 ± 0.34% | relative viability ([1]; 10 µM): 3.19 ± 0.27% | relative viability ([2]; 0.0001 µM): 79.5 ± 1.5% | relative viability ([2]; 0.001 µM): 70.5 ± 3.2% | relative viability ([2]; 0.01 µM): 65.8 ± 4.4% | relative viability ([2]; 0.1 µM): 33.21 ± 0.054% | relative viability ([2]; 1 µM): 5.07 ± 0.86% | relative viability ([2]; 10 µM): 2.13 ± 0.16%

CC(C)(C#N)c1cc(Cn2cncn2)cc(C(C)(C)C#N)c1 [Anastrozole (Arimidex)]
relative viability ([1]; 0.0001 µM): 101 ± 1.4% | relative viability ([1]; 0.001 µM): 104 ± 3.2% | relative viability ([1]; 0.01 µM): 101 ± 1.7% | relative viability ([1]; 0.1 µM): 103.6 ± 0.71% | relative viability ([1]; 1 µM): 99.407 ± 0.097% | relative viability ([1]; 10 µM): 99.4 ± 2.6% | relative viability ([2]; 0.0001 µM): 125 ± 1.8% | relative viability ([2]; 0.001 µM): 109 ± 6.2% | relative viability ([2]; 0.01 µM): 108 ± 3.5% | relative viability ([2]; 0.1 µM): 106 ± 2.2% | relative viability ([2]; 1 µM): 120 ± 1.5% | relative viability ([2]; 10 µM): 119 ± 4.3%
